Measured values taken from US9963703B2, “Compositions and methods for treating pancreatic cancer” (Autotelic LLC, priority 2016, dated 2018).
In the oligonucleotide strings, read from the 5' end, every base follows the letter of its sugar. An asterisk marks phosphorothioate; unmarked linkages are phosphodiester. Other units and linkages are bracketed, terminal groups are in braces. A string of capitals states the bases alone. d = 2'-deoxy (DNA)

What was measured:
[1] = system: WiDr colon cancer cells; assay: Cellular proliferation of WiDr colon cancer cells in vitro; assay type: cell-based
Source text: The aim of the study was to determine the effect of AP12009 (trabedersen) treatment in combination with 5-Fluorouracil (5-FU) on TGFβ2 secretion and on cellular proliferation of HUP-T3 pancreatic cancer cells and WiDr colon cancer cells in vitro.

[2] = Acute single dose toxicity in rats; assay type: in vivo
Procedure: The clinical starting dose for the 7-days-on and 7-days-off schedule was based on the Lowest-Observed-Adverse-Effect-Level (LOAEL) devoid of severe toxicity in Cynomolgus monkeys as the most relevant species. This LOAEL of 4 mg/kg body weight (b.w.)/day is equivalent to approximately 1.3 mg/kg b.w./day or 48 mg/m^2/day on a body surface area basis in human adults. These numbers were rounded down and the safe starting dose was defined at 40 mg/m^2/day, equivalent to approximately 1 mg/kg b.w./day in humans. An alternative approach would have been based on the lowest lethal dose (LLD) of 300 mg/kg b.w. obtained in the acute single dose toxicity study in mice (in rats it was determined at 1000 mg/kg), at which 1 of 10 mice died (LLD10). According to the standard method, 10% of this dose (30 mg/kg) on a body surface area basis would then be defined as the clinical starting dose resulting in 90 mg/m^2/day. In the end, the lower of the two alternatives was chosen as starting dose.

trabedersen: TGF-beta2 specific phosphorothioate antisense oligodeoxynucleotide with the sequence 5′-CGGCATGTCTATTTTGTA-3′ (SEQ ID No: 1) (antisense dC*dG*dG*dC*dA*dT*dG*dT*dC*dT*dA*dT*dT*dT*dT*dG*dT*dA)
cell proliferation, % of untreated control ([1]; 10 μM AP12009): 76% | combination effect on cell proliferation ([1]; 10 μM AP12009 and 5-FU): sub-additive effects | lowest lethal dose (LLD) [2]: 1000 mg/kg
